This is an account of results in patent US20230128402A1 (The Trustees of Princeton University, priority 2020, published 2023).

The structures appear in SMILES notation.

In one test the target is T1, ALDH1a3 (Homo sapiens, UniProt P47895).
T1 sequence (P47895 1-512): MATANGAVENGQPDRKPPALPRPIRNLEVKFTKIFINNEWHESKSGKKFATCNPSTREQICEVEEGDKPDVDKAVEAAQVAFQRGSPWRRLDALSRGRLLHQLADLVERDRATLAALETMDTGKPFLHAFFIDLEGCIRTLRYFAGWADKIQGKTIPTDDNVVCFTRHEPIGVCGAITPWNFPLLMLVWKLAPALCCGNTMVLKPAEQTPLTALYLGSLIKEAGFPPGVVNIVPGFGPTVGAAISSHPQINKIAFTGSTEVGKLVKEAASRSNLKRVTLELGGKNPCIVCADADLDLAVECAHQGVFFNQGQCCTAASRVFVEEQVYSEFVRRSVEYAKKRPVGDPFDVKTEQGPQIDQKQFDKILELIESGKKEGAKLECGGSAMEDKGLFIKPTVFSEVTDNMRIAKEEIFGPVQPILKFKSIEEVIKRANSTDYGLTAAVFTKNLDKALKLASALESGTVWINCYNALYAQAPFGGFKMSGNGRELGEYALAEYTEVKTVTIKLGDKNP
As to the kind of experiment: Aldh1a3 enzyme inhibition assay, recombinant hALDH1a3. Particulars: resorufin fluorescence, 20° C. The test is classed as biochemical. Further details: made in house; host or cells: E. coli BL21-DE3, pET-Aldh1a3. The text has this:
(§1) Recombinant enzyme and inhibitor added immediately before assay. Reaction rate measured by resorufin fluorescence.

Another test has as its target T2, mALDH1a3 (Mus musculus, UniProt Q9JHW9).
T2 construct: made in house; host or cells: E. coli BL21-DE3, pET-Aldh1a3
T2 sequence (Q9JHW9 1-512): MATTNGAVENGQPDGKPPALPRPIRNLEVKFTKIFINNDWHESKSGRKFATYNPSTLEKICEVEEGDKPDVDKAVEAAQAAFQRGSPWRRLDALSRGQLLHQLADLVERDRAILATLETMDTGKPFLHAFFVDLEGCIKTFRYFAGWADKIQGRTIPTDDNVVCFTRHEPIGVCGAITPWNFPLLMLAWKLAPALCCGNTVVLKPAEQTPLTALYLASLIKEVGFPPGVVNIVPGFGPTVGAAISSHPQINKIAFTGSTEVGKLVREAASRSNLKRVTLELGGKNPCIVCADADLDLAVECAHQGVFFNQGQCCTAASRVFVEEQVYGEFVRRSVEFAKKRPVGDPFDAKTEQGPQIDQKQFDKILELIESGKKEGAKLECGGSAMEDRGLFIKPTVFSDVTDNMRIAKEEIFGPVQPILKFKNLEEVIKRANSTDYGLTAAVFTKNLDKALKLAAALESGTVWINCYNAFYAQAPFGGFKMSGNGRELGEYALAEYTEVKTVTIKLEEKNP
In words: Aldh1a3 enzyme inhibition assay, recombinant mALDH1a3. The test is classed as biochemical. Particulars: resorufin fluorescence, 20° C.
Source text: as §1

For the molecule `CCCc1cnccc1C(=O)Nc1cc2c(cc1F)NC(=O)CC2` [Compound 5], the figures for the IC50 on ALDH1a3 and on mALDH1a3 were < 0.1 µM and 0.25 to 1 µM, respectively.

Consider `CC(C)c1cnccc1C(=O)Nc1cc2c(cc1F)NC(=O)CC2` [Compound 6], for which the IC50 on ALDH1a3 and at mALDH1a3 was 1 to 5 µM each time.

For `CCc1cnc(C)cc1C(=O)Nc1cc2c(cc1F)NC(=O)CC2` [Compound 8], the IC50 is < 0.1 µM on ALDH1a3 and 0.1 to 0.25 µM on mALDH1a3.

Take `CCc1cnccc1C(=O)Nc1ccc2c(c1)CC(C)(C)C(=O)N2` [Compound 18, N-(3,3-dimethyl-2-oxo-1,4-dihydroquinolin-6-yl)-3-ethyl-pyridine-4-carboxamide]: the IC50 at ALDH1a3 was 0.1 to 0.25 µM; at mALDH1a3, 1 to 5 µM.

`CCc1cnccc1C(=O)Nc1ccc2c(c1)C(C)(C)CC(=O)N2` [Compound 19, N-(4,4-dimethyl-2-oxo-1,3-dihydroquinolin-6-yl)-3-ethyl-pyridine-4-carboxamide]: the IC50 at ALDH1a3 was in the range of 0.25 to 1 µM; on mALDH1a3, 1 to 5 µM.

`CCc1cnccc1C(=O)Nc1ccc2c(c1)CN(C)C(=O)N2` [Compound 20, 3-ethyl-N-(3-methyl-2-oxo-1,4-dihydroquinazolin-6-yl)pyridine-4-carboxamide]: the IC50 at ALDH1a3 is 1 to 5 µM; at mALDH1a3, > 5 µM.

Take `Cc1cnccc1C(=O)Nc1ccc2c(c1)CCC(=O)N2` [Compound 21]: the IC50 at ALDH1a3 and at mALDH1a3 was > 5 µM throughout.

`O=C1CCc2cc(Nc3nccc4ccccc34)ccc2N1` [Compound 22, 6-(1-isoquinolylamino)-3,4-dihydro-1H-quinolin-2-one]: the IC50 on ALDH1a3 and at mALDH1a3 was > 5 µM throughout.

Consider `CCc1cnccc1C(=O)Nc1ccc2c(c1)CCC(=O)N2C` [Compound 23, 3-ethyl-N-(1-methyl-2-oxo-3,4-dihydroquinolin-6-yl)pyridine-4-carboxamide], for which the IC50 on ALDH1a3 is > 5 µM; at mALDH1a3, 1 to 5 µM.

Take `Cc1cc(C(=O)Nc2ccc3c(c2)CCC(=O)N3)ccn1` [Compound 24]: the IC50 at ALDH1a3 and on mALDH1a3 was > 5 µM throughout.

Regarding `CCc1cnccc1NC(=O)c1ccc2c(c1)CCC(=O)N2` [Compound 26, N-(3-ethyl-4-pyridyl)-2-oxo-3,4-dihydro-1H-quinoline-6-carboxamide], the IC50 at ALDH1a3 and on mALDH1a3 was > 5 µM each time.

As to `CCc1cnccc1C(=O)N(C)c1ccc2c(c1)CCC(=O)N2` [Compound 27, 3-ethyl-N-methyl-N-(2-oxo-3,4-dihydro-1H-quinolin-6-yl)pyridine-4-carboxamide], the IC50 at ALDH1a3 and at mALDH1a3 was > 5 µM each time.

In the case of `CCc1cnccc1C(=O)NCc1ccc2c(c1)CCC(=O)N2` [Compound 28, 3-ethyl-N-[(2-oxo-3,4-dihydro-1H-quinolin-6-yl)methyl]pyridine-4-carboxamide], the IC50 at ALDH1a3 and at mALDH1a3 was > 5 µM in each case.

Take `CCc1cc(C(=O)Nc2ccc3c(c2)CCC(=O)N3)ccn1` [Compound 29]: the IC50 on ALDH1a3 and on mALDH1a3 was > 5 µM in each case.

`Cc1cnccc1/C=C/c1ccc2c(c1)CCC(=O)N2` [Compound 30, 6-[(E)-2-(3-methyl-4-pyridyl)vinyl]-3,4-dihydro-1H-quinolin-2-one]: the IC50 is > 5 µM at ALDH1a3 and 1 to 5 µM on mALDH1a3.

Regarding `CCc1cnccc1CC(=O)Nc1ccc2c(c1)CCC(=O)N2` [Compound 31, 2-(3-ethyl-4-pyridyl)-N-(2-oxo-3,4-dihydro-1H-quinolin-6-yl) acetamide], the IC50 at ALDH1a3 and at mALDH1a3 was > 5 µM each time.

As for `CCc1cnccc1C(=O)Nc1ccc2c(c1)NC(=O)CC2` [Compound 32], the IC50 on ALDH1a3 and at mALDH1a3 was > 5 µM throughout.

`CCc1cnccc1/C=C/c1ccc2c(c1)CCC(=O)N2` [Compound 33, 6-[(E)-2-(3-ethyl-4-pyridyl)vinyl]-3,4-dihydro-1H-quinolin-2-one]: the IC50 at ALDH1a3 and at mALDH1a3 was 0.1 to 0.25 µM in each case.

In the case of `CC1(C)CC(=O)Nc2ccc(Nc3nccc4ccccc34)cc21` [Compound 34, 6-(1-isoquinolylamino)-4,4-dimethyl-1,3-dihydroquinolin-2-one], the IC50 at ALDH1a3 and on mALDH1a3 was > 5 µM each time.

As for `O=C1CCc2cc(Nc3ccc4ccccc4n3)ccc2N1` [Compound 35, 6-(2-quinolylamino)-3,4-dihydro-1H-quinolin-2-one], the IC50 on ALDH1a3 was 0.25 to 1 µM; on mALDH1a3, < 0.1 µM.

In the case of `Cc1cc(C(=O)Nc2cc3c(cc2F)NC(=O)C(C)(C)C3)c(CC(C)C)cn1` [Compound 37, N-(7-fluoro-3,3-dimethyl-2-oxo-1,4-dihydroquinolin-6-yl)-5-isobutyl-2-methyl-pyridine-4-carboxamide], the IC50 was 1 to 5 µM on ALDH1a3 and > 5 µM on mALDH1a3.

Turning to `CCc1cnccc1C(=O)Nc1cc2c(cc1F)NC(=O)C(C)(C)C2` [Compound 38], the IC50 lay in the range of 0.25 to 1 µM at ALDH1a3 and 1 to 5 µM on mALDH1a3.

With `CCc1cnccc1C(=O)Nc1cc2ccc(=O)[nH]c2cc1F` [Compound 39, 3-ethyl-N-(7-fluoro-2-oxo-1H-quinolin-6-yl) pyridine-4-carboxamide], the IC50 at ALDH1a3 was in the range of 0.25 to 1 µM; at mALDH1a3, 1 to 5 µM.

As to `CCc1cnccc1C(=O)Nc1cc2c(cc1F)NC(=O)CC2(C)C` [Compound 40], the IC50 on ALDH1a3 was 1 to 5 µM; on mALDH1a3 it was 0.25 to 1 µM.

As to `COc1cnccc1C(=O)Nc1cc2c(cc1F)NC(=O)C(C)(C)C2` [Compound 41, N-(7-fluoro-3,3-dimethyl-2-oxo-1,4-dihydroquinolin-6-yl)-3-methoxy-pyridine-4-carboxamide], the IC50 at ALDH1a3 and at mALDH1a3 was > 5 µM throughout.

`CCc1cc(C#N)ccc1C(=O)Nc1cc2c(cc1F)NC(=O)C(C)(C)C2` [Compound 42, 4-cyano-2-ethyl-N-(7-fluoro-3,3-dimethyl-2-oxo-1,4-dihydroquinolin-6-yl)benzamide]: the IC50 at ALDH1a3 and on mALDH1a3 was 1 to 5 µM in each case.

With `CCc1cnccc1/C=C/c1ccc2c(c1)CC(C)(C)C(=O)N2` [Compound 43, 6-[(E)-2-(3-ethyl-4-pyridyl)vinyl]-3,3-dimethyl-1,4-dihydroquinolin-2-one], the IC50 lay within 0.25 to 1 µM on ALDH1a3 and 1 to 5 µM on mALDH1a3.

Consider `CCc1cnccc1/C=C/c1cc2c(cc1F)NC(=O)CC2` [Compound 45, 6-[(E)-2-(3-ethyl-4-pyridyl)vinyl]-7-fluoro-3,4-dihydro-1H-quinolin-2-one], for which the half-maximal inhibitory concentration (IC50) at ALDH1a3 and at mALDH1a3 was 0.25 to 1 µM throughout.

`CC1(C)Cc2cc(Nc3ccc4ccccc4n3)ccc2NC1=O` [Compound 46, 3,3-dimethyl-6-(2-quinolylamino)-1,4-dihydroquinolin-2-one]: the IC50 at ALDH1a3 and on mALDH1a3 was 1 to 5 µM in each case.

Turning to `O=C1CCc2cc(Nc3ccc4ccccc4n3)c(F)cc2N1` [Compound 47, 7-fluoro-6-(2-quinolylamino)-3,4-dihydro-1H-quinolin-2-one], the IC50 at ALDH1a3 was 0.1 to 0.25 µM; on mALDH1a3 it was < 0.1 µM.

`CC1(C)Cc2cc(Nc3ccc4ccccc4n3)c(F)cc2NC1=O` [Compound 48, 7-fluoro-3,3-dimethyl-6-(2-quinolylamino)-1,4-dihydroquinolin-2-one]: the IC50 at ALDH1a3 and on mALDH1a3 was 0.25 to 1 µM each time.

For the molecule `CCc1c(C(=O)Nc2ccc3c(c2)CCC(=O)N3)cc[nH]c1=O` [Compound 50, 3-ethyl-2-oxo-N-(2-oxo-3,4-dihydro-1H-quinolin-6-yl)-1H-pyridine-4-carboxamide], the IC50 on ALDH1a3 lay in the range of 0.1 to 0.25 µM; on mALDH1a3 it was 1 to 5 µM.

With `CCc1c[nH]c(=O)cc1C(=O)Nc1ccc2c(c1)CCC(=O)N2` [Compound 51, 5-ethyl-2-oxo-N-(2-oxo-3,4-dihydro-1H-quinolin-6-yl)-1H-pyridine-4-carboxamide], the IC50 on ALDH1a3 and on mALDH1a3 was > 5 µM each time.

For `O=C1CCc2cc(NC(=O)c3ccnc4ccccc34)ccc2N1` [Compound 52, N-(2-oxo-3,4-dihydro-1H-quinolin-6-yl)quinoline-4-carboxamide], the values for the IC50 at ALDH1a3 and on mALDH1a3 were 0.25 to 1 µM and 0.1 to 0.25 µM, respectively.

With `O=C1CCc2cc(NC(=O)c3ccncc3C(F)(F)F)ccc2N1` [Compound 54, N-(2-oxo-3,4-dihydro-1H-quinolin-6-yl)-3-(trifluoromethyl)pyridine-4-carboxamide], the figures for the IC50 on ALDH1a3 and at mALDH1a3 were 0.25 to 1 µM and > 5 µM, respectively.

For orientation: IC50 means the concentration needed to halve the response being measured.
